In US20080242667A1, “Pyrimidinyl-Pyrazole Inhibitors of Aurora Kinases” (SMITHKLINE BEECHAM CORPORATION, priority 2005, published 2008) one finds melting point data, which are given here for 6 compounds.

`O=C(Nc1ccc(-c2nn(CCO)cc2-c2ccnc(Nc3cccc(F)c3)n2)cc1)N1CCCC1` [Example 54, N-{4-[4-{2-[(3-fluorophenyl)amino]-4-pyrimidinyl}-1-(2-hydroxyethyl)-1H-pyrazol-3-yl]phenyl}-1-pyrrolidinecarboxamide] registered a melting point of 185 to 186 °C.

`Cn1cc(-c2ccnc(Nc3cccc(CCN4CCOCC4)c3)n2)c(-c2ccc(NC(=O)NC3CC3)cc2)n1` [Example 55, N-cyclopropyl-N′-(4-{1-methyl-4-[2-({3-[2-(4-morpholinyl)ethyl]phenyl}amino)-4-pyrimidinyl]-1H-pyrazol-3-yl}phenyl)urea] yielded a melting point of 143 to 145 °C.

In turn, `Cn1ncc(-c2ccnc(Nc3cccc(CCN4CCOCC4)c3)n2)c1-c1ccc(NC(=O)N2CCCC2)cc1` [Example 56, N-(4-{1-methyl-4-[2-({3-[2-(4-morpholinyl)ethyl]phenyl}amino)-4-pyrimidinyl]-1H-pyrazol-5-yl}phenyl)-1-pyrrolidinecarboxamide] displayed a melting point of 228 to 230 °C.

Compound `CCNC(=O)Nc1ccc(-c2nn(C)cc2-c2ccnc(Nc3cccc(CCN4CCOCC4)c3)n2)cc1` [Example 61, N-ethyl-N′-(4-{1-methyl-4-[2-({3-[2-(4-morpholinyl)ethyl]phenyl}amino)-4-pyrimidinyl]-1H-pyrazol-3-yl}phenyl)urea] displayed a melting point of 139 to 141 °C.

For the compound `CN(C)C(=O)Nc1ccc(-c2nn(C)cc2-c2ccnc(Nc3cccc(CCN4CCOCC4)c3)n2)cc1` [Example 65, N,N-dimethyl-N′-(4-{1-methyl-4-[2-({3-[2-(4-morpholinyl)ethyl]phenyl}amino)-4-pyrimidinyl]-1H-pyrazol-3-yl}phenyl)urea], the melting point lay in the range of 132 to 134 °C.

Compound `O=C(Nc1ccc(-c2nn(CCN3CCOCC3)cc2-c2ccnc(Nc3cccc(F)c3)n2)cc1)N1CCCC1` [Example 84, N-(4-{4-[2-{(3-fluorophenyl)amino]-4-pyrimidinyl}-1-[2-(4-morpholinyl)ethyl]-1H-pyrazol-3-yl}phenyl)-1-pyrrolidinecarboxamide] registered a melting point of 167 to 168 °C.

As a reminder, the melting point is the temperature of the solid-liquid transition.
